Results taken from US9795688B2, “Cell-specific targeting using nanostructured delivery systems” (SmartDyeLivery GmbH, priority 2013, dated 2017).

Assays:
Assay type in all cases: cell-based
OATP1B1 = molecular target: T1, OATP1B1 (Homo sapiens, UniProt Q9Y6L6); assay: Inhibition of radioactively labeled substrate uptake in transfected HEK-293T cells; conditions: 10 μmol/L, 5 minutes; [3H]Estradiol 30 nM
T1 construct: expressed in transfected cells; host or cells: HEK-293T
T1 sequence (Q9Y6L6 1-691): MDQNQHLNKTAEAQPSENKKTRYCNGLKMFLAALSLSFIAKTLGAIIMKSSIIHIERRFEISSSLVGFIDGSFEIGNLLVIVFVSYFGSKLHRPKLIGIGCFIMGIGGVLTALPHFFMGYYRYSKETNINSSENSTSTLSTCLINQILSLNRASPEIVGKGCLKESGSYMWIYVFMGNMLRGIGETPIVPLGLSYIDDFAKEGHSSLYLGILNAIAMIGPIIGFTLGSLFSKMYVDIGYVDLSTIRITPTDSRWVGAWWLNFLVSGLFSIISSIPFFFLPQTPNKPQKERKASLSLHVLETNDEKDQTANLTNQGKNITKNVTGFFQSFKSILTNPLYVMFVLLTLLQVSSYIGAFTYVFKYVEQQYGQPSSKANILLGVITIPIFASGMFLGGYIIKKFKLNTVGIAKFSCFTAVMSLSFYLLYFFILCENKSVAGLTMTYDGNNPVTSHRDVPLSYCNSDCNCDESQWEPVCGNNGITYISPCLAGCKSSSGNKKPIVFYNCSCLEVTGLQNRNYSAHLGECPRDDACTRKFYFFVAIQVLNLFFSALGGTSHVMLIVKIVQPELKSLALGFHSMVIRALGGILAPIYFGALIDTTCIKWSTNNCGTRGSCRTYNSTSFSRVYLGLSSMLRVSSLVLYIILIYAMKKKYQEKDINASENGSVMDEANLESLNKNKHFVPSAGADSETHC
Description: (§1) HEK-293T cells were transfected with human tissue-specific hepatocytic transporters. Then the uptake of the polymethine dye DY-635 as a targeting unit into these tissue-specific transporters was investigated for FIG. 10 A. To do so, the cells were sown onto 96 well plates, incubated for 24 hours under standard conditions, then incubated 5 minutes with DY-635 (final concentration in the well: 10 μmol/L) after changing the medium. Next the cells were lysed and the lysates were measured by fluorimetry. […] The uptake by OCT1 can be evaluated as negligible. In FIG. 10 B the question of whether DY-635 binds as an inhibitor to the basolateral hepatocytic transporters was investigated. For this purpose, the HEK-293T cells transfected with the tissue-specific transporters were sown and incubated as described above. After 24 hours the cells were incubated for 5 minutes with either a radioactively labeled transporter-specific substrate or with the radioactive-specific substrate with a specific inhibitor or with DY-635 (10 μmol/L final concentration) (the substrates and their concentrations are shown in Table 3 below). The cells were then washed and lysed in the well. To quantify the uptake, the radioactive radiation of the substrates was used. […] This illustrates the strong interaction of DY-635 with the tissue-specific hepatocytic transporters. It can be concluded that by exposure of DY-635 to the surface of a nanostructured transporter system, immobilization on the cell surface of the hepatocyte occurs, resulting in subsequent endocytosis of the nanoparticle.

OAT2 = molecular target: T2, OAT2 (Homo sapiens, UniProt Q9Y694); assay: as above; conditions: 10 μmol/L, 5 minutes; [3H]cGMP 10 nM
T2 construct: expressed in transfected cells; host or cells: HEK-293T
T2 sequence (Q9Y694 1-548): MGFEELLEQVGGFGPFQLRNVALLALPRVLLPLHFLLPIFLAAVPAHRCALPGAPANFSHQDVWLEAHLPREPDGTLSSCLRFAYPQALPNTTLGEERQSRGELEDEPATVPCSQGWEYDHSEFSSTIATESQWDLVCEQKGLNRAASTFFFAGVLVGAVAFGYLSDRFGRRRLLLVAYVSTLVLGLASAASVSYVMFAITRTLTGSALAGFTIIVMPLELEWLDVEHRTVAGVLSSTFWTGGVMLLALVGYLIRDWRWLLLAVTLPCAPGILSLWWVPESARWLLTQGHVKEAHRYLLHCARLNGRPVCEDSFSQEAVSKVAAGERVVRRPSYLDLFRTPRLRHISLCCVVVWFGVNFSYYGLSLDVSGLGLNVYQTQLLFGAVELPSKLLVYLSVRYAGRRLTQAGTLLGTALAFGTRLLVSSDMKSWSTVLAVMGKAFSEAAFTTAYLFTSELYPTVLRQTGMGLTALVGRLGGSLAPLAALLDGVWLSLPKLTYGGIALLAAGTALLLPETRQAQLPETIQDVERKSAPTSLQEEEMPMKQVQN
Description: as §1

OCT1 [1] = molecular target: T3, OCT1 (Homo sapiens, UniProt O15245); assay: as above; conditions: 10 μmol/L, 5 minutes; [3H]1-Methyl-4-phenylpyridinium
T3 construct: expressed in transfected cells; host or cells: HEK-293T
T3 sequence (O15245 1-554): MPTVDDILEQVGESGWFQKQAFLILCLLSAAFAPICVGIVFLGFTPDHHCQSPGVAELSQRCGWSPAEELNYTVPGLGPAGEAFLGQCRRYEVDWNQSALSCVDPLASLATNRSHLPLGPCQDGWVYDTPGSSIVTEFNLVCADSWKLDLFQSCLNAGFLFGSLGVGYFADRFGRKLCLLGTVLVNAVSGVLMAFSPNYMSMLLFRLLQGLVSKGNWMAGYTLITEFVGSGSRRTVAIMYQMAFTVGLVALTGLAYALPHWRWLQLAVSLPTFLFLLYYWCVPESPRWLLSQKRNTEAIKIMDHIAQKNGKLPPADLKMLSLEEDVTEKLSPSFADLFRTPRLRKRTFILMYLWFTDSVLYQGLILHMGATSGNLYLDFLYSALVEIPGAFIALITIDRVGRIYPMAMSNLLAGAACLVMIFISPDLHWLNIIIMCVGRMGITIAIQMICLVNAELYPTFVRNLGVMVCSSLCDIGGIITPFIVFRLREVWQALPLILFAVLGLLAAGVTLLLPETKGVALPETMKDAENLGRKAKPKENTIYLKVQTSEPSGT
Description: as §1

OATP1B3 = molecular target: T4, OATP1B3 (Homo sapiens, UniProt Q9NPD5); assay: as above; conditions: 10 μmol/L, 5 minutes; [3H]Sulfobromophthalein
T4 construct: expressed in transfected cells; host or cells: HEK-293T
T4 sequence (Q9NPD5 1-702): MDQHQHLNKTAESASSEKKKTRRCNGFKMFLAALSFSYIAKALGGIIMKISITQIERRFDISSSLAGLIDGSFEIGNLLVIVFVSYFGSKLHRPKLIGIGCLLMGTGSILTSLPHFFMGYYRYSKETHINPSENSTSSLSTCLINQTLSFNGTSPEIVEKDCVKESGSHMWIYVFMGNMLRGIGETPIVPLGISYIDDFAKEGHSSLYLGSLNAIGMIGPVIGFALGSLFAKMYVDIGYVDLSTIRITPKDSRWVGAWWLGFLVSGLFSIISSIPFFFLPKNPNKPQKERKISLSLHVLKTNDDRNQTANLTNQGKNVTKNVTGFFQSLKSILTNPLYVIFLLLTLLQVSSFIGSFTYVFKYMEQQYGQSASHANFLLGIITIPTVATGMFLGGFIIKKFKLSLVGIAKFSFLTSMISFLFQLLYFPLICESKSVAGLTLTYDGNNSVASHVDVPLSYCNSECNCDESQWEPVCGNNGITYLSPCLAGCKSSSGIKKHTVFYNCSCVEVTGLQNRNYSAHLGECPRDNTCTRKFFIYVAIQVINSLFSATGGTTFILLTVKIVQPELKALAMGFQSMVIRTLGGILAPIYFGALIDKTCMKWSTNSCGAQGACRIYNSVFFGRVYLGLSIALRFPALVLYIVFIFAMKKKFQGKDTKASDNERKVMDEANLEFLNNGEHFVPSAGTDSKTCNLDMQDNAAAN
Description: as §1

NTCP = molecular target: T5, NTCP (Homo sapiens, UniProt Q14973); assay: Uptake of DY-635 into transporter-transfected HEK-293T cells; conditions: 10 μmol/L, 5 minutes
T5 construct: expressed in transfected cells; host or cells: HEK-293T
T5 sequence (Q14973 1-349): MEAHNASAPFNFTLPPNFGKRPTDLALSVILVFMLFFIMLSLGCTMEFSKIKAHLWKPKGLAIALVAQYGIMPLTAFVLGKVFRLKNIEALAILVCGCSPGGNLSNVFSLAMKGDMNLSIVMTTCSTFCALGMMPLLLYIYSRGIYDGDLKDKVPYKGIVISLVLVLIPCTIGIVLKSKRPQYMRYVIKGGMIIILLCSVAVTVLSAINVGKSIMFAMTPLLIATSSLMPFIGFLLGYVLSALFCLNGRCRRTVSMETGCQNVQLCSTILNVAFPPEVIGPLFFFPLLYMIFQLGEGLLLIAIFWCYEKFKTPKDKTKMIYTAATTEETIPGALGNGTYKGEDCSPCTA
Description: as §1, with “It can be concluded that by exposure of DY-635 to the surface of a nanostructured transporter system, immobilization on the cell surface of the hepatocyte occurs, resulting in subsequent endocytosis of the nanoparticle.” left out

OCT1 [2] = molecular target: T3, OCT1; assay: as above; conditions: 10 μmol/L, 5 minutes
Description: as §1, with “It can be concluded that by exposure of DY-635 to the surface of a nanostructured transporter system, immobilization on the cell surface of the hepatocyte occurs, resulting in subsequent endocytosis of the nanoparticle.” left out

- inhibition of OATP1B1 (OATP1B1): strong indicator
- inhibition of OAT2 (OAT2): inhibited
- inhibition of OCT1 (OCT1 [1]): inhibited
- inhibition of OATP1B3 (OATP1B3): strong indicator
- uptake of DY-635 by NTCP (NTCP): substrate for NTCP
- uptake of DY-635 by OCT1 (OCT1 [2]): negligible
Compound: CC(C)(C)C1=CC(=CC=CC2=[N+](CCCCCC(=O)O)c3ccc(S(=O)(=O)[O-])cc3C2(C)C)c2cc3c4c(c2O1)CCCN4CCC3 [DY-635]
